Measured values taken from patent publication US10138232B2, “Naphthyridinedione derivatives” (NOVARTIS AG, priority 2014, dated 2018).

System: CFTR-Y122X (GFP-CFTR-Y122X-Renilla construct) in Hek293 cell lines
Experiment: CFTR-Y122X assay (dual reporter readthrough, Renilla luminescence)
Format: cell-based
Settings: Homo sapiens, compounds incubated 24 h, tested up to 100 μM; for AC50: nonsense mutation suppression in the CFTR-Y122X assay; for Emax: nonsense mutation suppression, 100% activity = 14 mM paromomycin, read-out: Amax
Description: In particular, compounds of formula (I), (I′), (Ia), (Ia′) or (Ib) I act as nonsense mutation suppressors on frequent PTCs, e.g. on Y122X in the mRNA of the cystic fibrosis conductance regulator protein (CFTR). This can be determined in vitro, for example, using cell lines expressing GFP-CFTR-Y122X-Renilla constructs as described herein.
Activity of compounds of the present invention was examined in recombinant, dual reporter isogenic Hek293 cell lines (“CFTR-Y122X assay”). The engineered reporter constructs contained the 18 bp sequence strech corresponding to a common Y122X PTC mutation in CFTR class I mutant patients (see Sermet-Gaudelus, BMC Medicine, 2007, 5(5)). Instead of a tyrosine (Y) in position 122 of the CFTR protein a TGA stop codon interrupts the open reading frame (Y122X) of the corresponding mRNA. This TGA stop codon triplet (followed by the pyrimidine base cytosine) is permissive to aminoglycoside mediated translational readthrough which served as positive control for high throughput screening. A corresponding TAA stop codon variant and a wildtype non mutated construct was used for confirmation and counter screening. The CFTR sequence was sandwiched between an eGFP reporter, and a triple myc tag sequence fused to a full length Renilla reporter. All sequences, including an intron containing one positioned pre-eGFP (b-globin intron) were cloned in frame. The corresponding expression constructs were stably expressed in the isogenic HEK-R4 cell host (Invitrogen Incorp.) and selected by blasticidin resistance. The isogenic integration of the construct minimizes gene dose effects and improves assay reproducibility. Stably integrated single cell derived clones were selected and characterized for aminoglycoside mediated readthrough. […] Readthrough of Y122X accumulates an intracellular localized fusion protein approximately 65.5 kDa in size as controlled by western blot analysis and immunofluorescence using an anti-renilla antibody. The eGFP reporter pre-PTC mutation serves as visual control for genetic stability of the screening clones and minimizes protein degradation of small fusion protein amounts. In the assay, compound concentration was 10 μM. In miniaturized 1536 well format 2000 cells were dispensed in 4 μl/well and incubated for 24 h at 37° C., 5% CO2. 40 nl compounds were placed on the cells with control wells containing 1 ul Paramomycin and 14.4 mM final concentration. Compounds were incubated for 24 h. Renilla Glo substrate (2.5 ul) was added and plates were centrifuged and processed for luminescence measurement using various readers. Activity calculation was done using the equation: A1(%)=100*(S−NC)/(AC−NC) where AC, NC and S correspond to active controls (injection of Stimulation buffer=100% stimulation), neutral controls (buffer injection which Iloprost EC10) and screening samples (S). NC corresponds to 0% activity whereas AC is 100% activity (14 mM paromomycin). False positive artefacts were removed in confirmation and validation screening using the same assay format followed by counterscreening using the respective wildtype construct (w/o PTC mutation) cell model. Compounds were tested up to 100 μM compound concentration.

Structure (SMILES)	AC50 [nM]	Emax [%]
O=c1c2ccsc2[nH]c2cc(C3CCC3)n(-c3ccccc3)c(=O)c12 [Example 1.32, 7-cyclobutyl-6-phenylthieno[2,3-b][1,6]naphthyridine-4,5(6H,9H)-dione]	4200	247
Cc1cc2c(=O)c3c(=O)n(-c4ccccc4)c(C4CCC4)cc3[nH]c2s1 [Example 1.33, 7-cyclobutyl-2-methyl-6-phenylthieno[2,3-b][1,6]naphthyridine-4,5(6H,9H)-dione]	19400	243
Cn1c2ccsc2c(=O)c2c(=O)n(-c3ccccc3)c(C3CCC3)cc21 [Example 1.34, 6-cyclobutyl-4-methyl-7-phenylthieno[3,2-b][1,6]naphthyridine-8,9(4H,7H)-dione]	1000	263
O=c1c2sccc2[nH]c2cc(C3CCC3)n(-c3ccccc3)c(=O)c12 [Example 1.35, 6-cyclobutyl-7-phenylthieno[3,2-b][1,6]naphthyridine-8,9(4H,7H)-dione]	400	126
Cc1cc2c(s1)c(=O)c1c(=O)n(-c3ccccc3)c(C3CCC3)cc1n2C [Example 1.36, 6-cyclobutyl-2,4-dimethyl-7-phenylthieno[3,2-b][1,6]naphthyridine-8,9(4H,7H)-dione]	4100	177
Cc1cc2[nH]c3cc(C4CCC4)n(-c4ccccc4)c(=O)c3c(=O)c2s1 [Example 1.37, 6-cyclobutyl-2-methyl-7-phenylthieno[3,2-b][1,6]naphthyridine-8,9(4H,7H)-dione]	1400	164
Cc1ccc2c(c1)c(=O)c1c(=O)n(-c3ccccc3)c(C3CCC3)cc1n2C [Example 1.38, 3-cyclobutyl-5,8-dimethyl-2-phenylbenzo[b][1,6]naphthyridine-1,10(2H,5H)-dione]	2300	215
Cn1c2ccc(F)cc2c(=O)c2c(=O)n(-c3ccccc3)c(C3CCC3)cc21 [Example 1.39, 3-cyclobutyl-8-fluoro-5-methyl-2-phenylbenzo[b][1,6]naphthyridine-1,10(2H,5H)-dione]	1200	239
O=c1c2cc(Cl)ccc2[nH]c2cc(C3CCC3)n(-c3ccccc3)c(=O)c12 [Example 1.40, 8-chloro-3-cyclobutyl-2-phenylbenzo[b][1,6]naphthyridine-1,10(2H,5H)-dione]	1000	300
Cc1ccc2[nH]c3cc(C4CCC4)n(-c4ccccc4)c(=O)c3c(=O)c2c1 [Example 1.41, 3-cyclobutyl-8-methyl-2-phenylbenzo[b][1,6]naphthyridine-1,10(2H,5H)-dione]	500	223
Cn1c2ccc(Cl)cc2c(=O)c2c(=O)n(-c3ccccc3)c(C3CCC3)cc21 [Example 1.42, 8-chloro-3-cyclobutyl-5-methyl-2-phenylbenzo[b][1,6]naphthyridine-1,10(2H,5H)-dione]	3900	134
COc1cccc2c(=O)c3c(=O)n(-c4ccccc4)c(C(C)C)cc3n(C)c12 [Example 1.43, 3-isopropyl-6-methoxy-5-methyl-2-phenylbenzo[b][1,6]naphthyridine-1,10(2H,5H)-dione]	22000	186
O=c1c2cc(F)ccc2[nH]c2cc(C3CCC3)n(-c3ccccc3)c(=O)c12 [Example 1.44, 3-cyclobutyl-8-fluoro-2-phenylbenzo[b][1,6]naphthyridine-1,10(2H,5H)-dione]	400	178
O=c1c2cccc3c2n(c2cc(C4CCC4)n(-c4ccccc4)c(=O)c12)CC3 [Example 1.45, 9-cyclobutyl-8-phenyl-1H-indolo[1,7-ab][1,6]naphthyridine-6,7(2H,8H)-dione]	600	252
COc1cccc2c(=O)c3c(=O)n(-c4ccccc4)c(C4CCC4)cc3n(C)c12 [Example 1.46, 3-cyclobutyl-6-methoxy-5-methyl-2-phenylbenzo[b][1,6]naphthyridine-1,10(2H,5H)-dione]	3400	247
